Experiments:
Type in all cases: cell-based, human
[1] = test system: p-PKCα^S497 and p-PKCα^T638; experiment: Western blot of PKCα phosphorylation in NAMECs
Method: (§1) To obtain protein extracts, cells were scraped from culture dishes in chilled PBS, centrifuged at 450×g for 4 min at 4° C., washed again in PBS, and incubated for 20 min in ice cold lysis buffer containing freshly added protease inhibitors (0.5 mM phenylmethylsulfonyl fluoride, 10 μg/ml leupeptin, 2 μg/ml aprotonin). Lysates were cleared by centrifugation at 12,100×g, 4° C. for 10 min and the supernatant was snap frozen in liquid nitrogen. Protein concentrations were determined using Bradford Dye (Bio-Rad). 30 μg total protein was separated by SDS-PAGE on NuPAge gels (Invitrogen), and transferred to Hybond-P PVDF membrane (GE Healthcare). The membrane was probed with specific primary antibodies and antibody-protein complex detected by HRP-conjugated antibodies and ECL-Plus (Amersham Biosciences).
We subsequently sought to determine whether PKCα activation was directly dependent upon PDGFR-PLCγ. Exposure of NAMECs to a PLCγ inhibitor (U73122) reduced active p-PKCα^S497 and p-PKCα^T638 by 1.3 and 3.1-fold respectively within 30 min, and 6.3 and 4.2-fold respectively by 60 min (FIG. 13C); total PKCα level was unchanged (FIG. 13C). The inhibition of PDGFR in NAMECs, similarly, led to a loss of PKCα phosphorylation (p-PKCα^S497: 2.8 fold, p-PKCα^T638: 5.9 fold), as illustrated once again by the loss of active p-PKCα^S497 and p-PKCα^T638 within 30 min, while total PKCα remained constant (FIG. 13D).

[2] = test system: NAMEC-Tom-Ras and HMLE-GFP-Ras cells; experiment: Co-mixed NAMEC-Tom-Ras (CSC-enriched) and HMLE-GFP-Ras (CSC-depleted) cells, kinase inhibition, FACS; settings: dose response, co-mixed cells
Method: (§2) Kinase inhibitors and other chemical compounds were obtained from various sources listed below. These were dissolved or diluted in DMSO. To set up the screen, 75,000 NAMEC-Tom and 15,000 HMLE-GFP cells were seeded into each well of a 6-well tissue culture plate. The following day, spent media was replaced with 3 ml of fresh media. Inhibitors were added to achieve the desired range of concentrations. For control treatment, DMSO was added. Fresh media containing inhibitors were replaced daily during the six day period. For analysis, cells were trypsinized with 1 ml 0.15% trypsin, diluted with 1 ml serum-containing media and fixed with 1 ml of 4% paraformaldehyde. FACS analysis was performed to analyze the proportion of surviving cells relative to DMSO-treated control for NAMEC-Tom or HMLE-GFP cells. To test the effects of these inhibitors on CSCs and non-CSCs, NAMEC-Ras-Tom and […] were used in similar co-mixed experiments.
as §2, with “experiments. To assess the fraction of cells undergoing apoptosis, cells were exposure to agents for three days without fresh media and then analyzed with Annexin V-APC (BD Biosciences).” for “experiments.”
Having determined that NAMEC-Ras cells were enriched for CSCs, we mixed NAMEC-Ras cells labeled with tdTomato (NAMEC-Tom-Ras) and HMLE-Ras cells labeled with GFP (HMLE-GFP-Ras) and re-tested the effects of kinase inhibition as described above. […] In addition, these NAMEC-Tom-Ras cells were more resistant to paclitaxel (11.3 fold) and staurosporine (32.8 fold) than the corresponding HMLE-GFP-Ras cells used as controls (FIG. 3C).

[3] = test system: p-B-Raf, p-c-Raf, p-MEK1/2 and p-ERK1/2; experiment: Western blot of MAPK/ERK signaling in NAMECs; settings: 30 min
Method: as §1
We assessed whether mesenchymal cells contained higher Ras expression or activated Ras. […] We assessed whether enhanced ERK signaling in the mesenchymal cell state was primarily mediated through the activated PDGFR and PKCα signaling cascade, rather than through activation via a Ras-Raf pathway. To test this, we exposed NAMECs to PKCα-specific inhibitors for 30 min. This reduced p-B-Raf and p-c-Raf expression, and led to the loss of p-MEK1/2 and p-ERK1/2 (FIG. 5F). […] Therefore, the enhanced activity of ERK signaling during EMT was, in part, conferred by signaling through PDGFR and PKCα.

p-FRA1^S265 = experiment: Western blot of FRA1 phosphorylation in NAMECs; settings: applied to NAMECs for 30 min
Method: as §1
FRA1 is a member of the Fos family of transcription factors, which is also comprised of c-Fos, FosB and Fra2. Together with the Jun family of transcription factors composed of c-Jun, JunB and JunD, individual members of the Fos and Jun family associate with one another to form heterodimeric activator protein-1 (AP-1) complexes that bind and transcriptionally regulate target gene expression when phosphorylated (Eferl and Wagner, 2003).
We assessed whether the observed increased p-FRA1 activity in the mesenchymal cells could be further augmented by elevated ERK signaling during EMT. Accordingly, inhibition of ERK1/2 phosphorylation with a MEK inhibitor was able to decrease p-FRA1^S265 levels by 65% but not the levels of total FRA1 or p-c-Jun (FIG. 5G), confirming that ERK1/2 signaling promoted p-FRA1 activity.

p-PLCγ1^Y783 = experiment: Western blot of PLCγ1 phosphorylation in NAMECs; settings: 5 μM, within 30 min
Method: as §1
(§3) Protein levels of both phospholipase Cγ1 and 2 (PLCγ1 and PLCγ2), which transduce signals from PDGFRα/β to PKCα, were also elevated in these cells by an average of 4.57 and 2.38-fold, respectively (FIG. 4E). To test whether PLCγ is being activated by PDGFR through phosphorylation, NAMECs were treated with PDGFR inhibitors.

p-PLCγ2^Y1217 = experiment: Western blot of PLCγ2 phosphorylation in NAMECs; settings: 5 μM, within 30 min
Method: as §1, §3

## COc1cc2ncnc(N3CCN(C(=O)Nc4ccc(Oc5ccccc5)cc4)CC3)c2cc1OC [PDGFR Inh III]
[1]
  effect on PKCα phosphorylation: reduced phosphorylation of PKCα
[2]
  which cell type is more sensitive / selected against: NAMEC-Ras-Tom cells were more sensitive
[3]
  effect on phospho-proteins of ERK signaling: downregulation of B-Raf and C-Raf phosphorylation, and dampening ERK signaling
p-FRA1^S265
  effect on phosphorylation of FRA1: blocked the phosphorylation of FRA1
p-PLCγ1^Y783
  effect on p-PLCγ1^Y783: reduced
p-PLCγ2^Y1217
  effect on p-PLCγ2^Y1217: reduced

From patent publication US10106778B2, “Selective targeting of cancer stem cells” (Whitehead Institute for Biomedical Research, priority 2012, dated 2018)
